Patent US10160747B2, “Compounds and methods for kinase modulation, and indications therefor” (Plexxikon Inc., priority 2016, dated 2018)

Experiments:
FLT3-ITD = biological target: T1, FLT3-ITD (Homo sapiens, UniProt P36888); experiment: FLT3-ITD recombinant enzyme kinase assay (AlphaScreen); type: biochemical; conditions: 8 pt; read-out: FLT3_ITD 8 pt: IC50
T1 sequence (P36888 1-993): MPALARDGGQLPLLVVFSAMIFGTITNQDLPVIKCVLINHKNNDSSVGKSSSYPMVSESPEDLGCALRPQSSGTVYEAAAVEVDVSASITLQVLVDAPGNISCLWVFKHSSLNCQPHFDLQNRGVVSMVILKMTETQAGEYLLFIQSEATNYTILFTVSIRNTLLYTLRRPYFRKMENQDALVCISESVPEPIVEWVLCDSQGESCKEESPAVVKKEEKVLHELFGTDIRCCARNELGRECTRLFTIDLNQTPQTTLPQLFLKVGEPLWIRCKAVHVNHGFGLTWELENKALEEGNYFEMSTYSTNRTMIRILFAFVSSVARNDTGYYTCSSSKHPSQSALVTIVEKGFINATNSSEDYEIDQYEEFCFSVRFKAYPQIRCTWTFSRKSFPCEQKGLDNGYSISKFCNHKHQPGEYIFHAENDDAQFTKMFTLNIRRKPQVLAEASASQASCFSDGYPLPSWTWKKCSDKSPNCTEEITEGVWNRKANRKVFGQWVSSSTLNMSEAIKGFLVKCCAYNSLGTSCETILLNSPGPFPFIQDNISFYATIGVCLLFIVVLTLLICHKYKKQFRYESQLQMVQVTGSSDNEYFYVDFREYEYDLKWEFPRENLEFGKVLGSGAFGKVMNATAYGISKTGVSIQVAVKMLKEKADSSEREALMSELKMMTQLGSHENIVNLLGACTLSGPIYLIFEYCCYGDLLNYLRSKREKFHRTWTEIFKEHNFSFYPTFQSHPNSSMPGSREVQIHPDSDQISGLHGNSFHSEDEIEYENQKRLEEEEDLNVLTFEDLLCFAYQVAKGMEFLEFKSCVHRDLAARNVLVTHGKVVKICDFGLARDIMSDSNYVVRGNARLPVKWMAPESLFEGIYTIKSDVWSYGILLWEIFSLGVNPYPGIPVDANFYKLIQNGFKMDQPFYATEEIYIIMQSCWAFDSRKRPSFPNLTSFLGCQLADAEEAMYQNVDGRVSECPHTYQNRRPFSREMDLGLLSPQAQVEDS
Outline: (§1)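 IC50 values are derived from reduced AlphaScreen signal as inhibitors block tyrosine phosphorylation of a biotinylated poly(Glu4-Tyr) peptide (30 nM) by recombinant kinase. FLT3 variants are run at 10 μM ATP, c-KIT at 100 μM.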

FLT3-D835Y = biological target: T2, FLT3-D835Y (Homo sapiens, UniProt P36888, D835Y); experiment: FLT3-D835Y recombinant enzyme kinase assay (AlphaScreen); type: biochemical; conditions: 8 pt, GMean
T2 construct: purchased Invitrogen PV3967
T2 sequence (P36888 27-993 D835Y): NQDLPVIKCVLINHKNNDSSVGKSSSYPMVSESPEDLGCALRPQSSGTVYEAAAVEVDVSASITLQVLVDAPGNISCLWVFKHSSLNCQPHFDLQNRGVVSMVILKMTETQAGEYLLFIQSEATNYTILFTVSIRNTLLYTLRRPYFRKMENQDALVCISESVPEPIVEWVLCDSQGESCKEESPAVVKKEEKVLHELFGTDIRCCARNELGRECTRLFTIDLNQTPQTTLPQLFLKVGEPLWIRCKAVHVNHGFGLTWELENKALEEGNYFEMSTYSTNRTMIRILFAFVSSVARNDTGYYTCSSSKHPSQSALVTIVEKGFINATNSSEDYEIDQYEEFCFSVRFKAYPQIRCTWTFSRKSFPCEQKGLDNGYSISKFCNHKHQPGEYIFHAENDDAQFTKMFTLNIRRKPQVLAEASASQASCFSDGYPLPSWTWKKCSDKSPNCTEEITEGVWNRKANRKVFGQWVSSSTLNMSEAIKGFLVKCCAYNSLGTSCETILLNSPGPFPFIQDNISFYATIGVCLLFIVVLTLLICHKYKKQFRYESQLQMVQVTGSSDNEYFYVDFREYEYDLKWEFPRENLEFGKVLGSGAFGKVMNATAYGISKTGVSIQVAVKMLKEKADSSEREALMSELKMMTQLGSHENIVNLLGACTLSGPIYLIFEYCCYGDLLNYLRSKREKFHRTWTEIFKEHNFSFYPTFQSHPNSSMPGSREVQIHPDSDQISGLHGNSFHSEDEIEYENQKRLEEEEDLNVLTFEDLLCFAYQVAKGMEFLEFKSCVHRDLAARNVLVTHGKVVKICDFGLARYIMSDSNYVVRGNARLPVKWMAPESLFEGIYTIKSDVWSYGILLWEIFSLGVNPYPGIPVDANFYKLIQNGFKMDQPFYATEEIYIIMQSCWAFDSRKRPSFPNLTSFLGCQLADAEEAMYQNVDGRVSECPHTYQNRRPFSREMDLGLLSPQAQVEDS
Outline: as §1

IC50 (FLT3-ITD) [µM] | IC50 (FLT3-D835Y) [µM] | SMILES
0.0001 to 10 | 0.0001 to 10 | COCCn1cc(Nc2ncc(-c3ccc(CC(=O)Nc4cnc(OC)c(C(F)(F)F)c4)c(F)c3)cn2)cn1 [Compound P-0265, 2-[2-fluoro-4-[2-[[1-(2-methoxyethyl)pyrazol-4-yl]amino]pyrimidin-5-yl]phenyl]-N-[6-methoxy-5-(trifluoromethyl)-3-pyridyl]acetamide]
0.0001 to 10 | 0.0001 to 10 | COCCn1cc(Nc2ncc(-c3ccc(CC(=O)Nc4cnc(Cl)c(C(F)(F)F)c4)c(F)c3)cn2)cn1 [Compound P-0266, N-[6-chloro-5-(trifluoromethyl)-3-pyridyl]-2-[2-fluoro-4-[2-[[1-(2-methoxyethyl)pyrazol-4-yl]amino]pyrimidin-5-yl]phenyl]acetamide]
0.0001 to 10 | 0.0001 to 10 | COCCn1cc(Nc2ncc(-c3ccc(CC(=O)Nc4cncc(C(F)(F)F)c4)c(F)c3)cn2)cn1 [Compound P-0267, 2-[2-fluoro-4-[2-[[1-(2-methoxyethyl)pyrazol-4-yl]amino]pyrimidin-5-yl]phenyl]-N-[5-(trifluoromethyl)-3-pyridyl]acetamide]
0.0001 to 10 | 0.0001 to 10 | COCCn1cc(Nc2ncc(-c3ccc(CC(=O)Nc4ccc(C(F)(F)F)nc4)c(F)c3)cn2)cn1 [Compound P-0268, 2-[2-fluoro-4-[2-[[1-(2-methoxyethyl)pyrazol-4-yl]amino]pyrimidin-5-yl]phenyl]-N-[6-(trifluoromethyl)-3-pyridyl]acetamide]
0.0001 to 10 | 0.0001 to 10 | COCCn1cc(Nc2ncc(-c3ccc(CC(=O)Nc4ccc(C(F)(F)F)cn4)c(F)c3)cn2)cn1 [Compound P-0269, 2-[2-fluoro-4-[2-[[1-(2-methoxyethyl)pyrazol-4-yl]amino]pyrimidin-5-yl]phenyl]-N-[5-(trifluoromethyl)-2-pyridyl]acetamide]
0.0001 to 10 | 0.0001 to 10 | COCCn1cc(Nc2ncc(-c3ccc(CC(=O)Nc4cc(C(F)(F)F)ccn4)c(F)c3)cn2)cn1 [Compound P-0270, 2-[2-fluoro-4-[2-[[1-(2-methoxyethyl)pyrazol-4-yl]amino]pyrimidin-5-yl]phenyl]-N-[4-(trifluoromethyl)-2-pyridyl]acetamide]
0.0001 to 10 | 0.0001 to 10 | COCCn1cc(Nc2ncc(-c3ccc(CC(=O)Nc4cnc(OC)c(C(F)(F)F)c4)cc3)cn2)cn1 [Compound P-0271, 2-[4-[2-[[1-(2-methoxyethyl)pyrazol-4-yl]amino]pyrimidin-5-yl]phenyl]-N-[6-methoxy-5-(trifluoromethyl)-3-pyridyl]acetamide]
0.0001 to 10 | 0.0001 to 10 | COCCn1cc(Nc2ncc(-c3ccc(CC(=O)Nc4ccc(C(F)(F)F)nc4)cc3)cn2)cn1 [Compound P-0273, 2-[4-[2-[[1-(2-methoxyethyl)pyrazol-4-yl]amino]pyrimidin-5-yl]phenyl]-N-[6-(trifluoromethyl)-3-pyridyl]acetamide]
0.0001 to 10 | 0.0001 to 10 | COCCn1cc(Nc2ncc(-c3ccc(CC(=O)Nc4ccc(C(F)(F)F)cn4)cc3)cn2)cn1 [Compound P-0274, 2-[4-[2-[[1-(2-methoxyethyl)pyrazol-4-yl]amino]pyrimidin-5-yl]phenyl]-N-[5-(trifluoromethyl)-2-pyridyl]acetamide]
